Data on 22 molecules can be found in patent US8969383B2, “Picolinamide derivatives as TTX-S blockers” (RaQualia Pharma Inc., priority 2009, dated 2015).

For one assay, the target named is T1, human Nav1.3 (Homo sapiens, UniProt Q9NY46).
T1 construct: expressed in transfected cells; host or cells: HEK293
In words: FRET assay, human Nav1.3 channels expressed in HEK293 cells. Particulars: HEK293 cells expressing human NaV1.3, veratridine-opened channels. Format: cell-based. As to the method: (§1) The ability of the picolinamide derivatives of the formula (I) to inhibit the NaV1.3,Nav1.7 and Nav1.5 channels was measured by FRET assay and electrophysiology assay described below.
(§2) This screen is used to determine the effects of compounds on human Nav1.3, human Nav1.7, and human Nav1.5 channels, utilising the cell imaging technology by Hamamatsu Photonics's Functional Drug Screening System (FDSS). This experiment is based on FRET (Fluorescence Resonance Energy Transfer) and uses two fluorescent molecules. The first molecule, Oxonol (DiSBAC2(3)), is a highly fluorescent, negatively charged, hydrophobic ion that “senses” the trans-membrane electrical potential. In response to changes in membrane potential, it can rapidly redistribute between two binding sites on opposite sides of the plasma membrane. The voltage dependent redistribution is transduced into a ratiometric fluorescent readout via a second fluorescent molecule (Coumarin (CC2-DMPE)) that binds specifically to one face of the plasma membrane and functions as a FRET partner to the mobile voltage-sensing ion. To enable the assay to work, the channels have to be pharmacologically held in the open state. This is achieved by treating the cells with veratridine.
Each HEK293 cells expressing human NaV1.3 channels and HEK293 cells expressing human NaV1.5 channels were grown in T225 flasks, in a 5% CO2 humidified incubator to about 80% confluence. Media composition consisted of Dulbecco's Modified Eagle Medium (high glucose), 10% fetal calf serum (FCS), 100 units/ml Penicillin, 100 microgram/ml Streptomycin and 500 microgram/ml Geneticine.
(§3) • Seed each cell lines (1.5×10^4 cells/well) into poly-D-lysine coated 384-well plates prior to experimentation. • Incubate at 37° C. in 5% CO2 for 24 hours. • Wash each well with buffer #1 (140 mM NaCl, 4.5 mM KCl, 10 mM D-Glucose, 2 mM CaCl2, 1 mM MgCl2, 10 mM HEPES, pH 7.4 adjusted with NaOH) twice using plate washer. • Add 1st loading solution containing 5 μM CC2-DMPE and 0.02% Pluronic F-127 in buffer #1. • Incubate the plate at room temperature in dark for 0.5 hours. • Wash each well with buffer #2 (160 mM Choline, 10 mM D-Glucose, 0.1 mM CaCl2, 1 mM MgCl2, 10 mM HEPES, pH 7.4 adjusted with KOH) twice using plate washer. • Add 2nd loading solution containing 15 μM DiSBAC2(3), 0.5 mM VABSC-1, 10 μM veratridine and 0.004% Pluronic F-127 in buffer #2. • Add compound solutions into the assay plate and leave the plate for 30 minutes under the dark at room temperature. • Measure by FDSS.
(§4) The data was analyzed and reported as normalized ratios of intensities measured in the 465 nm and 575 nm channels. The process of calculating these ratios was performed as follows:
(§5) “FI465B”=the mean of fluorescence intensity as baseline (before Na+ ligand addition) at 465 nm
(§6) “FI575B”=the mean of fluorescence intensity as baseline (before Na+ ligand addition) at 575 nm
(§7) “FI465Max”=maximum fluorescence intensity at 465 nm after Na+ stimulation
(§8) “FI575 Min”=minimum fluorescence intensity at 575 nm after Na+ stimulation
(§9) This analysis was performed using a computerized specific program designed for FDSS generated data. Fluorescence ratio values were plotted using XLfit to determine an IC50 value for each compound.

In the next assay the target is T2, human Nav1.7 (Homo sapiens, UniProt Q15858).
T2 construct: expressed in transfected cells; host or cells: CHO
In words: FRET assay, human Nav1.7 channels expressed in CHO cells. Format: cell-based. Particulars: CHO cells expressing human NaV1.7, veratridine-opened channels. As for the experimental part: as §1, §2
CHO cells expressing human NaV1.7 channels were grown in T225 flasks, in a 5% CO 2 humidified incubator to about 80% confluence. Media composition consisted of HAM/F12 with Glutamax 1.10% fetal calf serum (FCS), 100 units/ml Penicillin and 100 microgram/ml Hygromycin.
as §3, §4, §5, §6, §7, §8, §9

T1 sequence (Q9NY46 whole entry): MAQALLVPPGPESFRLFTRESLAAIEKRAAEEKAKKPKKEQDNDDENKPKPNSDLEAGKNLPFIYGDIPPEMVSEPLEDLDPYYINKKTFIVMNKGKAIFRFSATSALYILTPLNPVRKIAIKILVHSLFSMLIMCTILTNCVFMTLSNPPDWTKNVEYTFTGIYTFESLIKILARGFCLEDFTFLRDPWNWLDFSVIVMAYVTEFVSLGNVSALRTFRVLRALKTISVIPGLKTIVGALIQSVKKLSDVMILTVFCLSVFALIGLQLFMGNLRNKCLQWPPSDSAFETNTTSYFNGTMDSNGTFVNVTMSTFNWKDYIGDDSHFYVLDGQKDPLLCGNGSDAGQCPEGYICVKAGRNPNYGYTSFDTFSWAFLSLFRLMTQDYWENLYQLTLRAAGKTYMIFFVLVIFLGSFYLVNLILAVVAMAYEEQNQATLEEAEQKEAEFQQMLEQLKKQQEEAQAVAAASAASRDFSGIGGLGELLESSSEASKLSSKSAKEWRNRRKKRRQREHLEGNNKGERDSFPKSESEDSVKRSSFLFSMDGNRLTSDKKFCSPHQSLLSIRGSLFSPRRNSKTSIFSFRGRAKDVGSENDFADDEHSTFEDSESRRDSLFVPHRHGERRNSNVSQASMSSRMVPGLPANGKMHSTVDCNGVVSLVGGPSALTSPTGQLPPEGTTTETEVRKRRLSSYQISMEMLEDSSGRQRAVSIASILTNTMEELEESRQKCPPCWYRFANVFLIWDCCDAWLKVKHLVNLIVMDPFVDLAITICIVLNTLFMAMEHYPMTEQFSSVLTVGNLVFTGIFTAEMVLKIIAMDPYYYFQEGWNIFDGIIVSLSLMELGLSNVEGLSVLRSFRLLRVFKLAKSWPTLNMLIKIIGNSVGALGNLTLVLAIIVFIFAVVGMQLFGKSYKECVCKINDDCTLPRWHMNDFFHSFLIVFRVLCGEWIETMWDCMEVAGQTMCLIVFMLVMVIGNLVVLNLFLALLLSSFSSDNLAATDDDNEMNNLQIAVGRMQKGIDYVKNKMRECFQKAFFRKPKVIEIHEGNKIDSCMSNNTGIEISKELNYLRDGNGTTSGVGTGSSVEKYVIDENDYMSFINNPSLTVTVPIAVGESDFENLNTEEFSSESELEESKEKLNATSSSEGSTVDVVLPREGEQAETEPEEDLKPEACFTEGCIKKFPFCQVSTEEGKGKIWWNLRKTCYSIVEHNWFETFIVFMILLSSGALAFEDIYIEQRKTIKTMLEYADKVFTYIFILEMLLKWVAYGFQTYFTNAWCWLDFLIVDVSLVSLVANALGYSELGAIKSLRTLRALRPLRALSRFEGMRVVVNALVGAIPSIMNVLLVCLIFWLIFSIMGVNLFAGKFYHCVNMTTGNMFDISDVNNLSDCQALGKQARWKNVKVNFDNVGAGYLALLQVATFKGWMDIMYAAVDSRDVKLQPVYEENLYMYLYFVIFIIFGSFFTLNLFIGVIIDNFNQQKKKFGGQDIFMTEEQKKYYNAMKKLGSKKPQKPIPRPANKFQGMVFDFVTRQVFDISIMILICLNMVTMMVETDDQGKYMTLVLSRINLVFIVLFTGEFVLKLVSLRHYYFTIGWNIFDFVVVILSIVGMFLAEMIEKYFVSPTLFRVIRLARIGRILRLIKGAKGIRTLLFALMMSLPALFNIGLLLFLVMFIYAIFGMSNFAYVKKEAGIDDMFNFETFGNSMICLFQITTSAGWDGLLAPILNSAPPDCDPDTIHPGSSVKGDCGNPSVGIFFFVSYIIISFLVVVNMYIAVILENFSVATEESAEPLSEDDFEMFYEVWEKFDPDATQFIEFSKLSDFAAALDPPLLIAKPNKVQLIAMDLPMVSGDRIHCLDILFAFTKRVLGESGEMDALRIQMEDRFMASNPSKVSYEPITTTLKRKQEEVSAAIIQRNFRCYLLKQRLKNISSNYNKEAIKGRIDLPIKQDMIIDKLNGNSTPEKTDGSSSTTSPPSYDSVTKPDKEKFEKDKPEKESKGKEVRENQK
T2 sequence (Q15858 whole entry): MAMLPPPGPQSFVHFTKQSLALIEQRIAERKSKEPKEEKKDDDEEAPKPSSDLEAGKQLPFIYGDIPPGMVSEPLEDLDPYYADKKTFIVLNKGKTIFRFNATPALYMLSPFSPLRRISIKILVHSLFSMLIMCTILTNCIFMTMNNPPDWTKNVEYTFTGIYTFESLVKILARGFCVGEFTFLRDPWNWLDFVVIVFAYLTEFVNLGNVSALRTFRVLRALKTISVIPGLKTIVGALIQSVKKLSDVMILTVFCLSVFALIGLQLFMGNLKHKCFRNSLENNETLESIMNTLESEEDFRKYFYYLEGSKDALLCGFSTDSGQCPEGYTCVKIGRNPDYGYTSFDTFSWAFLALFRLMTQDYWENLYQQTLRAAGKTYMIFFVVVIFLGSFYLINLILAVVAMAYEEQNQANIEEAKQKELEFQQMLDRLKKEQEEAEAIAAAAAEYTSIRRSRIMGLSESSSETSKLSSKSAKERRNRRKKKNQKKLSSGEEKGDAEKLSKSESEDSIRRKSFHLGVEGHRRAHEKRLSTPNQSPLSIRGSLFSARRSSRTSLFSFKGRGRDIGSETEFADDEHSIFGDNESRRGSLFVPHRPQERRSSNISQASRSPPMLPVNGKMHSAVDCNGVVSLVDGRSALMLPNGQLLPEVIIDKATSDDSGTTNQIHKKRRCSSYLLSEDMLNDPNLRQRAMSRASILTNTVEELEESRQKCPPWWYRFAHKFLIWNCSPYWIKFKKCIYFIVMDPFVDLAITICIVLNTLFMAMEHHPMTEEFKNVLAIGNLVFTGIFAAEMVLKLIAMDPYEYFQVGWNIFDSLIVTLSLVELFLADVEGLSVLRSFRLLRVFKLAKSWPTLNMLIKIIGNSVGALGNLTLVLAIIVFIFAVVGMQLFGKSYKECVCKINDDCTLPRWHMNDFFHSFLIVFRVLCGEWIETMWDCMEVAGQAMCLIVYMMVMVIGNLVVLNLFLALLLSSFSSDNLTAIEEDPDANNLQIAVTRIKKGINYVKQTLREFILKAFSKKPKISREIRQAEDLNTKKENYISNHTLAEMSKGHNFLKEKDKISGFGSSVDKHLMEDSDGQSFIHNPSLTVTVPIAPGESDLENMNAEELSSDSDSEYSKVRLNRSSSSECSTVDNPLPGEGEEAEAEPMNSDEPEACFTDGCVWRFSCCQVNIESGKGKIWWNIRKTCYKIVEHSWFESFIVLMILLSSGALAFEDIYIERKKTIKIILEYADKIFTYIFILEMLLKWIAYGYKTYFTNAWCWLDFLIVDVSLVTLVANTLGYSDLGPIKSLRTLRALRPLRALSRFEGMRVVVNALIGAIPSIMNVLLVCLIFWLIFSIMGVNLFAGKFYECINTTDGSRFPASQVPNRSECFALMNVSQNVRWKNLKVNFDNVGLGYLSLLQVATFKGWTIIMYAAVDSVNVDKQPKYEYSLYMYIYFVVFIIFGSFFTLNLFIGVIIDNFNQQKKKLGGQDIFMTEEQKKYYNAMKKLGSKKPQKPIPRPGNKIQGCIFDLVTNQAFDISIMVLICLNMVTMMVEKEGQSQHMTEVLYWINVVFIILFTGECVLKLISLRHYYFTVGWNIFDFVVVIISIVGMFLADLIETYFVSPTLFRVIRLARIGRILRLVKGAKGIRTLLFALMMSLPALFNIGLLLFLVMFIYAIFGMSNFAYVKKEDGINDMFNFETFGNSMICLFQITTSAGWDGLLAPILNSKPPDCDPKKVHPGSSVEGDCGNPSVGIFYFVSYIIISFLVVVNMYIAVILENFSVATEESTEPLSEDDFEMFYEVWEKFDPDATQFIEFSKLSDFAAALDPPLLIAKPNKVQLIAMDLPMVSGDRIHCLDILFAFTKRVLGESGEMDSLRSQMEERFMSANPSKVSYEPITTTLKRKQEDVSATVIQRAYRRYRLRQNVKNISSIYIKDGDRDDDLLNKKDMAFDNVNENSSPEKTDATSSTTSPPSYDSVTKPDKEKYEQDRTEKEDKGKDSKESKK

Broadly, the IC50 is the concentration that inhibits the measured activity by half. Read a high IC50 as lower potency. Take `NC(=O)c1ncccc1OC[C@@H]1CCCN1C(=O)[C@H]1CC[C@@H](C(F)(F)F)CC1` [Example 2, 3-(((S)-1-(cis-4-(trifluoromethyl)cyclohexanecarbonyl)pyrrolidin-2-yl)methoxy)picolinamide]: the IC50 against human Nav1.3 and against human Nav1.7 was no more than 500 nM each time.
For `NC(=O)c1ncccc1OC[C@H]1CCCN1C(=O)c1ccc(C(F)(F)F)cc1` [Example 5, (R)-3-((1-(4-(trifluoromethyl)benzoyl)pyrrolidin-2-yl)methoxy) picolinamide], the IC50 at human Nav1.3 and against human Nav1.7 was no more than 500 nM each time.
As for `CC(C)(C)c1cc(C(=O)N2CCC[C@@H]2COc2cccnc2C(N)=O)no1` [Example 17, (R)-3-((1-(5-tert-butylisoxazole-3-carbonyl)pyrrolidin-2-yl)methoxy)picolinamide], the IC50 at human Nav1.3 and against human Nav1.7 was no more than 500 nM in each case.
As for `NC(=O)c1ncccc1OC[C@H]1CCCN1C(=O)COc1ccc(C(F)(F)F)cc1` [Example 18, (R)-3-((1-(2-(4-(trifluoromethyl)phenoxy)acetyl)pyrrolidin-2-yl)methoxy)picolinamide], the IC50 on human Nav1.3 and against human Nav1.7 was no more than 500 nM throughout.
`NC(=O)c1ncccc1OC[C@H]1CCCN1C(=O)c1ccc(OCC(F)(F)F)cc1` [Example 21, (R)-3-((1-(4-(2,2,2-trifluoroethoxy)benzoyl)pyrrolidin-2-yl)methoxy)picolinamide]: the half-maximal inhibitory concentration (IC50) against human Nav1.3 and on human Nav1.7 was no more than 500 nM each time.
Take `NC(=O)c1ncccc1OC[C@H]1CCCN1C(=O)c1ccc(OC(F)(F)F)cc1` [Example 25, (R)-3-((1-(4-(trifluoromethoxy)benzoyl)pyrrolidin-2-yl)methoxy) picolinamide]: the IC50 against human Nav1.3 and on human Nav1.7 was no more than 500 nM throughout.
As to `NC(=O)c1ncc(Cl)cc1OC[C@H]1CCCN1C(=O)[C@H]1CC[C@@H](C(F)(F)F)CC1` [Example 29, 5-chloro-3-(((R)-1-(cis-4-(trifluoromethyl)cyclohexanecarbonyl)pyrrolidin-2-yl)methoxy)picolinamide], the IC50 at human Nav1.3 and on human Nav1.7 was no more than 500 nM in each case.
Consider `NC(=O)c1ncc(Cl)cc1OC[C@H]1CCCN1C(=O)[C@H]1CC[C@H](C(F)(F)F)CC1` [Example 30, 5-chloro-3-(((R)-1-(trans-4-(trifluoromethyl)cyclohexanecarbonyl)pyrrolidin-2-yl)methoxy)picolinamide], for which the IC50 at human Nav1.3 and on human Nav1.7 was no more than 500 nM in each case.
As to `COc1cnc(C(N)=O)c(OC[C@H]2CCCN2C(=O)[C@H]2CC[C@H](C(F)(F)F)CC2)c1` [Example 31, 5-methoxy-3-(((R)-1-(trans-4-(trifluoromethyl)cyclohexanecarbonyl)pyrrolidin-2-yl)methoxy)picolinamide], the IC50 against human Nav1.3 and at human Nav1.7 was no more than 500 nM throughout.
For `COC(=O)CNC(=O)c1ncccc1OC[C@H]1CCCN1C(=O)[C@H]1CC[C@H](C(F)(F)F)CC1` [Example 35, methyl 2-(3-(((R)-1-(trans-4-(trifluoromethyl)cyclohexanecarbonyl)pyrrolidin-2-yl)methoxy)picolinamido)acetate], the IC50 against human Nav1.3 and against human Nav1.7 was no more than 500 nM throughout.
As to `COCCNC(=O)c1ncccc1OC[C@H]1CCCN1C(=O)[C@H]1CC[C@H](C(F)(F)F)CC1` [Example 37, N-(2-methoxyethyl)-3-(((R)-1-(trans-4-(trifluoromethyl)cyclohexanecarbonyl)pyrrolidin-2-yl)methoxy)picolinamide], the IC50 at human Nav1.3 and against human Nav1.7 was no more than 500 nM in each case.
Take `O=C(NCC1(O)CCCCC1)c1ncccc1OC[C@H]1CCCN1C(=O)[C@H]1CC[C@H](C(F)(F)F)CC1` [Example 39, N-((1-hydroxycyclohexyl)methyl)-3-(((R)-1-(trans-4-(trifluoromethyl)cyclohexanecarbonyl)pyrrolidin-2-yl)methoxy)picolinamide]: the IC50 at human Nav1.3 and on human Nav1.7 was no more than 500 nM in each case.
As for `O=C(NCc1ccccn1)c1ncccc1OC[C@H]1CCCN1C(=O)[C@H]1CC[C@H](C(F)(F)F)CC1` [Example 40, N-(pyridin-2-ylmethyl)-3-(((R)-1-(trans-4-(trifluoromethyl)cyclohexanecarbonyl)pyrrolidin-2-yl)methoxy)picolinamide], the IC50 at human Nav1.3 and on human Nav1.7 was no more than 500 nM throughout.
Turning to `O=C(NCc1ccccc1)c1ncccc1OC[C@H]1CCCN1C(=O)[C@H]1CC[C@H](C(F)(F)F)CC1` [Example 41, N-benzyl-3-(((R)-1-(trans-4-(trifluoromethyl)cyclohexanecarbonyl)pyrrolidin-2-yl)methoxy) picolinamide], the IC50 on human Nav1.3 and against human Nav1.7 was no more than 500 nM in each case.
As to `O=C(N[C@H](CO)c1ccccc1)c1ncccc1OC[C@H]1CCCN1C(=O)[C@H]1CC[C@H](C(F)(F)F)CC1` [Example 43, N-((S)-2-hydroxy-1-phenylethyl)-3-(((R)-1-(trans-4-(trifluoromethyl)cyclohexanecarbonyl)pyrrolidin-2-yl)methoxy) picolinamide], the IC50 at human Nav1.3 and against human Nav1.7 was no more than 500 nM throughout.
Consider `O=C(Nc1ncns1)c1ncccc1OC[C@H]1CCCN1C(=O)[C@H]1CC[C@H](C(F)(F)F)CC1` [Example 47, N-(1,2,4-thiadiazol-5-yl)-3-(((R)-1-(trans-4-(trifluoromethyl)cyclohexanecarbonyl)pyrrolidin-2-yl)methoxy) picolinamide], for which the IC50 on human Nav1.3 and at human Nav1.7 was no more than 500 nM throughout.
In the case of `O=C(NC1CCOCC1)c1ncccc1OC[C@H]1CCCN1C(=O)[C@H]1CC[C@H](C(F)(F)F)CC1` [Example 49, N-(tetrahydro-2H-pyran-4-yl)-3-(((R)-1-(trans-4-(trifluoromethyl)cyclohexanecarbonyl)pyrrolidin-2-yl)methoxy) picolinamide], the IC50 against human Nav1.3 and against human Nav1.7 was no more than 500 nM throughout.
As to `O=C(Nc1ccon1)c1ncccc1OC[C@H]1CCCN1C(=O)[C@H]1CC[C@H](C(F)(F)F)CC1` [Example 54, N-(isoxazol-3-yl)-3-(((R)-1-(trans-4-(trifluoromethyl)cyclohexanecarbonyl)pyrrolidin-2-yl)methoxy)picolinamide], the IC50 against human Nav1.3 and against human Nav1.7 was no more than 500 nM each time.
As for `O=C(Nc1ncco1)c1ncccc1OC[C@@H]1CCCN1C(=O)[C@H]1CC[C@@H](C(F)(F)F)CC1` [Example 62, N-(oxazol-2-yl)-3-(((S)-1-(cis-4-(trifluoromethyl)cyclohexanecarbonyl)pyrrolidin-2-yl)methoxy)picolinamide], the IC50 at human Nav1.3 and against human Nav1.7 was no more than 500 nM throughout.
For `O=C(Nc1ncco1)c1ncccc1OC[C@H]1CCCN1C(=O)[C@H]1CC[C@@H](C(F)(F)F)CC1` [Example 63, N-(oxazol-2-yl)-3-(((R)-1-(cis-4-(trifluoromethyl)cyclohexanecarbonyl)pyrrolidin-2-yl)methoxy)picolinamide], the IC50 at human Nav1.3 and against human Nav1.7 was no more than 500 nM throughout.
In the case of `O=C(Nc1ccon1)c1ncccc1OC[C@H]1CCCN1C(=O)c1cc(C2CC2)on1` [Example 65], the IC50 on human Nav1.3 and against human Nav1.7 was no more than 500 nM each time.
`O=C(Nc1ccon1)c1ncccc1OC[C@H]1CCCN1C(=O)CC1CCC(F)(F)CC1` [Example 66, (R)-3-((1-(2-(4,4-difluorocyclohexyl)acetyl)pyrrolidin-2-yl)methoxy)-N-(isoxazol-3-yl)picolinamide]: the IC50 against human Nav1.3 and against human Nav1.7 was no more than 500 nM in each case.
